Test results as given in patent US11072780B2, “Method of differentiating human pluripotent cells into cardiac fibroblasts” (Wisconsin Alumni Research Foundation, priority 2016, dated 2021).

What was measured:
hPSCs [1] = test: Quantitative RT-PCR time course of GiFGF protocol; format: cell-based, human; conditions: qRT-PCR, peaking at day 1
Protocol: Differentiation of hPSCs to cardiac fibroblasts: Human PSCs were dissociated with 1 ml/well Versene solution (Invitrogen) at 37° C. for 5 minutes, and seeded on Matrigel™ (GFR, BD Biosciences) coated 6-well plates at the density of 1.5×10^6 cells/well in mTeSR1 medium supplemented with 10 μM ROCK inhibitor (Y-27632) (Tocris). Cells were cultured for 5-6 days in mTeSR1 medium with medium change daily until the cells reached 100% confluence when differentiation started (day 0). At day 0, the medium was changed to 2.5 ml RPMI+B27 without insulin (Invitrogen) and supplemented with 12 μM CHIR99021 (Tocris) and cells were treated in this medium for 24 hrs (day 1). At day 1, medium was changed to 3 ml RPMI+B27 without insulin and cells were cultured in this medium for another day (day 2). At day 2, the medium was changed to 2.5 ml of the defined fibroblast culture medium (Table 1) supplemented with bFGF (WiCell). Methods using L-glutamine in place of GlutaMAX were also successful. […]
RT-PCR and quantitative RT-PCR: Cell samples were collected using 0.25% trypsin-EDTA (Invitrogen) to remove the cells from cell culture plates. […] Quantitative RT-PCR (Q-PCR) was performed using Taqman PCR Master Mix and Gene Expression Assays (Applied Biosystems) in triplicate for each sample and each gene. […]

hPSCs [2] = test: Flow cytometry of stage-specific progenitors in GiWi protocol; format: cell-based, human; conditions: after 24 hours of treatment
Protocol: Differentiation of hPSCs to cardiomyocytes using GiWi protocol: Human PSCs were dissociated with 1 ml/well Versene solution at 37° C. for 5 minutes, and seeded on Matrigel™ coated 6-well plates at the density of 1.5×10^6 cells/well in mTeSR1 medium supplemented with 10 μM ROCK inhibitor (Y-27632) (Tocris). Cells were cultured for 5-6 days in mTeSR1 medium until the cells reached 100% confluence when differentiation started (day 0). At day 0, the medium was changed to 2.5 ml RPMI+B27 without insulin (Invitrogen) and supplemented with 12 μM CHIR99021 (Tocris) and cells were treated in this medium for 24 hrs (day 1). At day 1, medium was changed to 3 ml RPMI+B27 without insulin and cells were cultured in this medium for 48 hrs (day 3). […]
Flow Cytometry: Cells were detached from cell culture plates by incubation with 0.25% trypsin-EDTA (Invitrogen) plus 2% chick serum (Sigma) for 5 minutes at 37° C. […] Cells were counted and 0.5-1 million cells were used as the sample size for labeling. […] Data were collected on a FACSCalibur™ flow cytometer (Beckton Dickinson) and analyzed using FlowJo™ software.
Biphasic modulation of the Wnt signaling pathway with small molecules is sufficient to direct the differentiation of monolayer cultured hPSCs to cardiomyocytes^21. […] We first determined the stage-specific mesodermal and cardiac progenitor populations generated by this small molecule (GiWi) protocol^22. […]

[3] = tested on: hPSC-derived cardiac mesodermal progenitors; test: Cardiac fibroblast differentiation induced by bFGF at stage-specific progenitors, flow cytometry at 20 days; format: cell-based
Protocol: Differentiation of hPSCs to cardiac fibroblasts: Human PSCs were dissociated with 1 ml/well Versene solution (Invitrogen) at 37° C. for 5 minutes, and seeded on Matrigel™ (GFR, BD Biosciences) coated 6-well plates at the density of 1.5×10^6 cells/well in mTeSR1 medium supplemented with 10 μM ROCK inhibitor (Y-27632) (Tocris). Cells were cultured for 5-6 days in mTeSR1 medium with medium change daily until the cells reached 100% confluence when differentiation started (day 0). At day 0, the medium was changed to 2.5 ml RPMI+B27 without insulin (Invitrogen) and supplemented with 12 μM CHIR99021 (Tocris) and cells were treated in this medium for 24 hrs (day 1). At day 1, medium was changed to 3 ml RPMI+B27 without insulin and cells were cultured in this medium for another day (day 2). At day 2, the medium was changed to 2.5 ml of the defined fibroblast culture medium (Table 1) supplemented with bFGF (WiCell). Methods using L-glutamine in place of GlutaMAX were also successful. Cells were fed every other day and cultured until day 20 for flow cytometry analysis and subculture of cardiac fibroblasts.
Flow Cytometry: Cells were detached from cell culture plates by incubation with 0.25% trypsin-EDTA (Invitrogen) plus 2% chick serum (Sigma) for 5 minutes at 37° C. Cells were vortexed to disrupt the aggregates followed by neutralization by adding equal volume of EB20 medium (Zhang et al., Circ Res. 2009). Cells were counted and 0.5-1 million cells were used as the sample size for labeling. Cells were fixed in 1% paraformaldehyde in a 37° C. water bath for 10 minutes in the dark. For labeling intracellular markers, cells were permeabilized in ice-cold 90% methanol for 30 minutes on ice. Cells were washed once in FACS buffer (PBS without Ca/Mg2^+, 0.5% BSA, 0.1% NaN3), centrifuged and resuspended in about 50 μl FACS buffer with (for intracellular markers) or without 0.1% Triton X-100. For labeling surface markers, appropriate amounts of the conjugated antibodies were added according to the manufacturer's instruction to the cells in FACS buffer to make the final volume of 100 μl with FACS buffer, and incubated in the dark for 30 minutes at room temperature. Cells were washed once with 3 ml FACS buffer and resuspended in 300-500 μl FACS buffer for analysis. […] Data were collected on a FACSCalibur™ flow cytometer (Beckton Dickinson) and analyzed using FlowJo™ software.
Our goal was to bias the differentiation to generate cardiac fibroblasts rather than cardiomyocytes. […] Following 20 days of differentiation, cells were analyzed by flow cytometry using a specific fibroblast antibody (mouse anti-human fibroblast, clone TE-7) and an antibody to sarcomeric myosin (MF20) expressed in cardiomyocytes. […]

Molecule	early mesodermal gene T expression (hPSCs [1])	Brachyury expression (hPSCs [2])	bFGF concentration at which fibroblast marker positive cells peaked ([3]; added on day 2 of differentiation)	fibroblast marker positive cells (clone TE-7) ([3]; bFGF 0-125 ng/ml in CFBM, 20 days of differentiation, flow cytometry)	cell death ([3]; higher concentration of bFGF added on day 3 or day 4, after day 6 of differentiation)	generation of MF20+ cardiomyocytes ([3]; medium change and bFGF added on day 2 or day 3)
Cc1c[nH]c(-c2cnc(NCCNc3ccc(C#N)cn3)nc2-c2ccc(Cl)cc2Cl)n1 [CHIR, CHIR99021]	transiently up-regulated	expressed in almost all cells				
bFGF: fibroblast growth factor (WiCell) added to the defined fibroblast medium			75 ng/mL	concentration-dependent increase	significant cell death	effectively prevented
